The target in this assay is T1, ROMK (Kir1.1) channel (Homo sapiens, UniProt P48048).
T1 sequence (P48048 1-391): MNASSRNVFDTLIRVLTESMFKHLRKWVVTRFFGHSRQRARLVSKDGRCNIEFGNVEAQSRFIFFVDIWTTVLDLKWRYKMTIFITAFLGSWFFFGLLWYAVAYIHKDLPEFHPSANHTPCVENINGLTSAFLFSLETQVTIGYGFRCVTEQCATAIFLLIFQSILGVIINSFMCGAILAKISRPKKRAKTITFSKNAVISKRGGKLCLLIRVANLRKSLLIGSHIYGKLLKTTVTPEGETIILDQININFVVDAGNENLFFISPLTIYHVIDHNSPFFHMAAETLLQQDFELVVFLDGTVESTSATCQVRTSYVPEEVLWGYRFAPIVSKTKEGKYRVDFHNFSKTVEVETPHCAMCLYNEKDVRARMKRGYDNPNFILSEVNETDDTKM
The experiment in a line: Thallium Flux Assay. In kind it is cell-based. An outline of the steps:
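Thallium flux assay as described in WO 2013/062900. Compounds supplied as HCl salts were tested in salt form.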
Consider `Cc1c([C@@H](O)CN2CCC3(CC2)CCN(c2c(C)c(=O)c2=O)CC3)ccc2c1COC2=O` [Example 78, (R)-3-(9-(2-hydroxy-2-(4-methyl-1-oxo-1,3-dihydroisobenzofuran-5-yl)ethyl)-3,9-diazaspiro[5.5]undecan-3-yl)-4-methylcyclobut-3-ene-1,2-dione], for which the IC50 (usually the concentration needed to halve the response being measured) came out at 30 nM. Under `CCc1c(N2CCC3(CCN(C[C@H](O)c4ccc5c(c4C)COC5=O)CC3)CC2)c(=O)c1=O` [Example 79, (R)-3-ethyl-4-(9-(2-hydroxy-2-(4-methyl-1-oxo-1,3-dihydroisobenzofuran-5-yl)ethyl)-3,9-diazaspiro[5.5]undecan-3-yl)cyclobut-3-ene-1,2-dione] stands 110 nM; under `Cc1c([C@@H](O)CN2CCC3(CC2)CCN(c2c(C4CC4)c(=O)c2=O)CC3)ccc2c1COC2=O` [Example 80, (R)-3-cyclopropyl-4-(9-(2-hydroxy-2-(4-methyl-1-oxo-1,3-dihydroisobenzofuran-5-yl)ethyl)-3,9-diazaspiro[5.5]undecan-3-yl)cyclobut-3-ene-1,2-dione], 141 nM. Under `Cc1c(N2CCC3(CCN(C[C@H](O)c4ccc(-n5cnnn5)nc4)CC3)CC2)c(=O)c1=O` [Example 81, (R)-3-(9-(2-(6-(1H-tetrazol-1-yl)pyridin-3-yl)-2-hydroxyethyl)-3,9-diazaspiro[5.5]undecan-3-yl)-4-methylcyclobut-3-ene-1,2-dione] stands 15 nM. To `Cc1c(N2CCC3(CCN(C[C@@H](O)c4ccc(-n5cnnn5)nc4)CC3)CC2)c(=O)c1=O` [Example 82, (S)-3-(9-(2-(6-(1H-tetrazol-1-yl)pyridin-3-yl)-2-hydroxyethyl)-3,9-diazaspiro[5.5]undecan-3-yl)-4-methylcyclobut-3-ene-1,2-dione] belongs 34 nM. Compound `Cc1c(N2CCC3(CCN(C[C@H](O)c4ccc(-n5cnnn5)nn4)CC3)CC2)c(=O)c1=O` [Example 83, (S)-3-(9-(2-(6-(1H-tetrazol-1-yl)pyridazin-3-yl)-2-hydroxyethyl)-3,9-diazaspiro[5.5]undecan-3-yl)-4-methylcyclobut-3-ene-1,2-dione] gave an IC50 of 317 nM. Under `Cc1c(N2CCC3(CCN(C[C@@H](O)c4ccc(-n5cnnn5)nn4)CC3)CC2)c(=O)c1=O` [Example 84, (R)-3-(9-(2-(6-(1H-tetrazol-1-yl)pyridazin-3-yl)-2-hydroxyethyl)-3,9-diazaspiro[5.5]undecan-3-yl)-4-methylcyclobut-3-ene-1,2-dione] stands 765 nM. Under `Cc1c(N2CCC3(CCN(C[C@H](O)c4cnc(-n5cnnn5)cn4)CC3)CC2)c(=O)c1=O` [Example 85, (S)-3-(9-(2-(5-(1H-tetrazol-1-yl)pyrazin-2-yl)-2-hydroxyethyl)-3,9-diazaspiro[5.5]undecan-3-yl)-4-methylcyclobut-3-ene-1,2-dione] stands 80 nM; under `Cc1c(N2CCC3(CCN(C[C@@H](O)c4cnc(-n5cnnn5)cn4)CC3)CC2)c(=O)c1=O` [Example 86, (R)-3-(9-(2-(5-(1H-tetrazol-1-yl)pyrazin-2-yl)-2-hydroxyethyl)-3,9-diazaspiro[5.5]undecan-3-yl)-4-methylcyclobut-3-ene-1,2-dione], 336 nM. Regarding `Cc1c(N2CCC3(CCN(C[C@H](O)c4ccc(-n5cnnn5)cn4)CC3)CC2)c(=O)c1=O` [Example 87, (S)-3-(9-(2-(5-(1H-tetrazol-1-yl)pyridin-2-yl)-2-hydroxyethyl)-3,9-diazaspiro[5.5]undecan-3-yl)-4-methylcyclobut-3-ene-1,2-dione], the IC50 was found to be 688 nM. `Cc1c(N2CCC3(CCN(C[C@H](O)c4ccc5c(ccc6nnnn65)c4)CC3)CC2)c(=O)c1=O` [Example 88, (R)-3-(9-(2-hydroxy-2-(tetrazolo[1,5-a]quinolin-7-yl)ethyl)-3,9-diazaspiro[5.5]undecan-3-yl)-4-methylcyclobut-3-ene-1,2-dione] gave an IC50 of 223 nM.

For the compound `Cc1c(N2CCC3(CCN(C[C@@H](O)c4ccc5c(ccc6nnnn65)c4)CC3)CC2)c(=O)c1=O` [Example 89, (S)-3-(9-(2-hydroxy-2-(tetrazolo[1,5-a]quinolin-7-yl)ethyl)-3,9-diazaspiro[5.5]undecan-3-yl)-4-methylcyclobut-3-ene-1,2-dione], the IC50 worked out at 257 nM. Under `CO[C@H](CN1CCC2(CC1)CCN(C1=CC(=O)OC1)CC2)c1ccc2c(c1C)COC2=O` [Example 90, (S)-5-(1-methoxy-2-(9-(5-oxo-2,5-dihydrofuran-3-yl)-3,9-diazaspiro[5.5]undecan-3-yl)ethyl)-4-methylisobenzofuran-1(3H)-one] stands 165 nM. Under `CO[C@@H](CN1CCC2(CC1)CCN(C1=CC(=O)OC1)CC2)c1ccc2c(c1C)COC2=O` [Example 91, (R)-5-(1-methoxy-2-(9-(5-oxo-2,5-dihydrofuran-3-yl)-3,9-diazaspiro[5.5]undecan-3-yl)ethyl)-4-methylisobenzofuran-1(3H)-one] stands 198 nM; under `CCOC1OC(=O)C=C1N1CCC2(CCN(C[C@H](O)c3ccc4c(c3C)COC4=O)CC2)CC1` (stereo partly drawn) [Example 92, 5-((1R)-2-(9-(2-ethoxy-5-oxo-2,5-dihydrofuran-3-yl)-3,9-diazaspiro[5.5]undecan-3-yl)-1-hydroxyethyl)-4-methylisobenzofuran-1(3H)-one], 539 nM; under `Cc1c([C@@H](O)CN2CCC3(CC2)CCN(C2=CC(=O)OCC2)CC3)ccc2c1COC2=O` [Example 93, 5-{(1R)-1-hydroxy-2-[9-(6-oxo-3,6-dihydro-2H-pyran-4-yl)-3,9-diazaspiro[5.5]undec-3-yl]ethyl}-4-methyl-2-benzofuran-1(3H)-one], 146 nM. The compound `CC1=C(N2CCC3(CCN(C[C@H](O)c4ccc5c(c4C)COC5=O)CC3)[C@@H](O)C2)COC1=O` [Example 94, 5-{(1R)-1-hydroxy-2-[(7R)-7-hydroxy-9-(4-methyl-5-oxo-2,5-dihydrofuran-3-yl)-3,9-diazaspiro[5.5]undec-3-yl]ethyl}-4-methyl-2-benzofuran-1(3H)-one] had an IC50 of 639 nM. Regarding `COCO[C@H]1CN(C2=C(C)C(=O)OC2)CCC12CCN(C[C@H](O)c1ccc3c(c1C)COC3=O)CC2` [Example 95, 5-{(1R)-1-hydroxy-2-[(7R)-7-(methoxymethoxy)-9-(4-methyl-5-oxo-2,5-dihydrofuran-3-yl)-3,9-diazaspiro[5.5]undec-3-yl]ethyl}-4-methyl-2-benzofuran-1(3H)-one], inhibition was half-maximal at 114 nM (IC50). Under `COCO[C@@H]1CN(C2=C(C)C(=O)OC2)CCC12CCN(C[C@H](O)c1ccc3c(c1C)COC3=O)CC2` [Example 96, 5-{(1R)-1-hydroxy-2-[(7S)-7-(methoxymethoxy)-9-(4-methyl-5-oxo-2,5-dihydrofuran-3-yl)-3,9-diazaspiro[5.5]undec-3-yl]ethyl}-4-methyl-2-benzofuran-1(3H)-one] stands 132 nM.

For the compound `CO[C@H]1CN(C2=C(C)C(=O)OC2)CCC12CCN(C[C@H](O)c1ccc3c(c1C)COC3=O)CC2` [Example 97, 5-{(1R)-1-hydroxy-2-[(7R)-7-methoxy-9-(4-methyl-5-oxo-2,5-dihydrofuran-3-yl)-3,9-diazaspiro[5.5]undec-3-yl]ethyl}-4-methyl-2-benzofuran-1(3H)-one], the IC50 turned out to be 42 nM. Regarding `CO[C@@H]1CN(C2=C(C)C(=O)OC2)CCC12CCN(C[C@H](O)c1ccc3c(c1C)COC3=O)CC2` [Example 98, 5-{(1R)-1-hydroxy-2-[(7S)-7-methoxy-9-(4-methyl-5-oxo-2,5-dihydrofuran-3-yl)-3,9-diazaspiro[5.5]undec-3-yl]ethyl}-4-methyl-2-benzofuran-1(3H)-one], the IC50 is 53 nM. Under `O=C1C=C(N2CCC3(CCN(C(=O)Cc4ccc(-n5cnnn5)nc4)CC3)CC2)CO1` [Example 99, 4-(9-(2-(6-(1H-tetrazol-1-yl)pyridin-3-yl)acetyl)-3,9-diazaspiro[5.5]undecan-3-yl)furan-2(5H)-one] stands 109 nM.

In turn, `O=C1C=C(N2CCC3(CCN(C(=O)Cc4c(F)cc(-n5cnnn5)cc4F)CC3)CC2)CO1` [Example 100, 4-(9-{[2,6-difluoro-4-(1H-tetrazol-1-yl)phenyl]acetyl}-3,9-diazaspiro[5.5]undec-3-yl)furan-2(5H)-one] registered an IC50 of 408 nM.

Turning to `O=C1C=C(N2CCC3(CCN(C(=O)Cc4cnc(-n5cnnn5)c(F)c4)CC3)CC2)CO1` [Example 101, 4-(9-{[5-fluoro-6-(1H-tetrazol-1-yl)pyridin-3-yl]acetyl}-3,9-diazaspiro[5.5]undec-3-yl)furan-2(5H)-one], the IC50 turned out to be 246 nM. To `O=C1C=C(N2CCC3(CCN(C(=O)Cc4ccc(-n5cnnn5)cc4)CC3)CC2)CO1` [Example 102, 4-(9-{[4-(1H-tetrazol-1-yl)phenyl]acetyl}-3,9-diazaspiro[5.5]undec-3-yl)furan-2(5H)-one] belongs 116 nM. To `O=C1C=C(N2CCC3(CCN(C(=O)C4CCc5cc(-n6cnnn6)ncc54)CC3)CC2)CO1` (stereo not shown) [Example 103, 4-(9-{[3-(1H-tetrazol-1-yl)-6,7-dihydro-5H-cyclopenta[c]pyridin-7-yl]carbonyl}-3,9-diazaspiro[5.5]undec-3-yl)furan-2(5H)-one] belongs 132 nM; to `O=C1C=C(N2CCC3(CCN(C(=O)Cc4cc(F)c(-n5cnnn5)cc4F)CC3)CC2)CO1` [Example 104, 4-(9-{[2,5-difluoro-4-(1H-tetrazol-1-yl)phenyl]acetyl}-3,9-diazaspiro[5.5]undec-3-yl)furan-2(5H)-one], 115 nM. Consider `Cc1c(CC(=O)N2CCC3(CC2)CCN(C2=CC(=O)OC2)CC3)ccc2c1COC2=O` [Example 105, 4-methyl-5-{2-oxo-2-[9-(5-oxo-2,5-dihydrofuran-3-yl)-3,9-diazaspiro[5.5]undec-3-yl]ethyl}-2-benzofuran-1(3H)-one], for which the half-inhibitory concentration (IC50) was 483 nM.
